From US9848599B2, “Co-crystals of 3-iodopropynyl butylcarbamate” (priority 2012, dated 2017)

Assay: Thermal stability compared with IPBC
Format: physicochemical

Row | Molecule | thermal stability compared with IPBC
1 | Co-crystal containing 3-iodopropynyl butylcarbamate and 4-[2-(4-pyridinyl)ethyl]pyridine in a 2:1 Molar Ratio [Co-Crystal 1] | higher thermal stability
2 | Co-Crystal Containing 3-iodopropynyl butylcarbamate and N,N′-bis(4-pyridylcarbonyl)-1,6-hexanediamine in a 2:1 Molar Ratio [Co-Crystal 5] | higher thermal stability
3 | CCCCNC(=O)OCC#CI.CCCCNC(=O)OCC#CI.c1cc(-c2ccncc2)ccn1 [Co-Crystal 2, Co-Crystal Containing 3-iodopropynyl butylcarbamate and 4,4′-bipyridine in a 2:1 Molar Ratio] | higher thermal stability
